Laboratory results from PubChem BioAssay AID1845217 (Molecular Pharmacology Branch, DTP, NCI, 2023).
pIC50: −log10 of the molar value.

Tested on: VA-ES-BJ tumor spheroid viability
Experiment: Anticancer human tumor VA-ES-BJ cell line growth inhibition;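 further: spheroids exposed to compounds for seven days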;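 on viability, T/C: percent of DMSO vehicle control viability so 100% = untreated growth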
Conditions: spheroids with HUVEC and MSC; for pIC50: curve of first compound; for viability, T/C: stronger effect = lower value
Text: Multicellular complex tumor spheroid response to DNA repair inhibitors in combination with DNA-damaging drugs
This study explores the anticancer activities of DNA-damaging drugs and inhibitors of DNA damage repair, both as single agents and in combinations. Complex tumor spheroids comprised of malignant cells, endothelial cells and mesenchymal stem cells served as an in vitro model for human solid tumors. This model system incorporates physiologically relevant features and patient-derived or established malignant cell lines with clinically relevant genetic alterations from many tumor types. Twenty-six patient-derived or established malignant cell lines were evaluated representing sarcoma, melanoma, small cell lung cancer (SCLC), non-small cell lung cancer (NSCLC), as well as bladder, ovarian and pancreatic cancers. The concentration ranges selected for each drug and investigational agent were based upon clinically achievable concentrations if the clinical Cmax of the agent was known.
Compounds. The drugs and compounds olaparib (NSC753686), talazoparib (NSC767125), berzosertib (NSC777718), elimusertib (NSC800525), nedisertib (NSC802822), VX-984 (NSC792969), AZD-1390 (NSC803789), temozolomide (NSC362856), topotecan (NSC609699), trabectedin (NSC813783), staurosporine (NSC755774), and gemcitabine (NSC613327) were obtained from the National Cancer Institute (NCI) Developmental Therapeutics Program Chemical Repository. The FDA-approved anticancer drug set is available from the Developmental Therapeutics Program at https://dtp.cancer.gov/organization/dscb/obtaining/available_plates.htm. […] The stock solutions were prepared in dimethyl sulfoxide (DMSO, Sigma-Aldrich, St. Louis, MO, cat. D2650) at 400-fold the tested concentration and stored at -70 degrees C. Prior to their use, the stock solutions were diluted in fresh medium and the final DMSO concentration in the assay was 0.25% (v/v). All drugs and investigational agents were tested over a range starting from a high concentration at or near the clinical Cmax and decreasing in half-log increments. If the clinical Cmax for an agent had not been determined, the highest concentration tested was 10 microM.
Cell Lines. The patient-derived cancer cell (PDC) lines: 156681-154-R-J1-PDC, 283228-195-R-J1-PDC, 287954-098-R-J1-PDC, 292921-168-R-J2-PDC, 349418-098-R-PDC, 425362-245-T-J1-PDC, 556581-035-R-J1-PDC, and BL0293-F563-PDC were received from the NCI Patient-Derived Models Repository (PDMR, https://pdmr.cancer.gov). The established cell lines HS-SY-2 (RRID:CVCL_8719), MPNST, and SYO-1 (RRID:CVCL_7146) were obtained from the Sloan Kettering Institute. The alveolar soft parts sarcoma cell line ASPS-1 (RRID:CVCL_S738) was established at the NCI and grown from internal seed stocks. The following established cell lines were purchased from the American Type Culture Collection (ATCC, Manassas, VA): G-401 (ATCC, cat. CRL-1441, RRID:CVCL_0270), SW982 (ATCC, cat. HTB-93, RRID:CVCL_1734), VA-ES-BJ (ATCC, cat. CRL-2138, RRID:CVCL_1785), NCI-H719 (ATCC, cat. CRL-5837, RRID:CVCL_1582), NCI-H196 (ATCC, cat. CRL-5823, RRID:CVCL_1509), NCI-H841 (ATCC, cat. CRL-5845, RRID:CVCL_1595), NCI-H1618 (ATCC, cat. CRL-5879, RRID:CVCL_1480), NCI-H1876 (ATCC, cat. CRL-5902, RRID:CVCL_1503), DMS 114 (ATCC, cat. CRL-2066; RRID:CVCL_1174), NCI-H211 (ATCC, cat. CRL-5824; RRID:CVCL_1529), and SW 1271 (ATCC, cat. CRL-2177, RRID:CVCL_1716). The small cell lung cancer cell line COR-L88 was purchased from Sigma-Aldrich (cat. 92031917-1VL, RRID:CVCL_1141). The non-small cell lung cancer cell lines NCI-H226 (RRID:CVCL_1544) and NCI-H322M (RRID:CVCL_1557) were established at the NCI and grown from internal seed stocks. Pooled donor human umbilical vein endothelial cells (HUVEC, Lonza, cat. CC-2519) and human mesenchymal stem cells (hMSC, Lonza, cat. PT-2501) were purchased from Lonza (Walkersville, MD).
Cell Culture. All cells were maintained in an incubator at 37 degrees C and 5% CO2 with 95% humidity. […]

SMILES: CC1COCCN1c1cc(-c2ccnn2C)c2ccnc(-c3ccn[nH]3)c2n1 (stereo not given) + Cn1nnc2c(C(N)=O)ncn2c1=O
- pIC50 (second compound 1 µM): 6.93
- pIC50 (second compound 3.16 µM): 6.90
- pIC50 (second compound 10 µM): 6.95
- pIC50 (second compound 31.6 µM): 7.08
- pIC50 (second compound 100 µM): 7.25
- viability, T/C (second compound 1 µM, first compound 0.0316 µM): 94.7%
- viability, T/C (second compound 1 µM, first compound 0.1 µM): 52.9%
- viability, T/C (second compound 1 µM, first compound 0.316 µM): 29%
- viability, T/C (second compound 1 µM, first compound 1 µM): 8.26%
- viability, T/C (second compound 1 µM, first compound 3.16 µM): 6.9%
- viability, T/C (second compound 1 µM, first compound 10 µM): 6.16%
- viability, T/C (second compound 3.16 µM, first compound 0.0316 µM): 85.2%
- viability, T/C (second compound 3.16 µM, first compound 0.1 µM): 54.7%
- viability, T/C (second compound 3.16 µM, first compound 0.316 µM): 30.1%
- viability, T/C (second compound 3.16 µM, first compound 1 µM): 9.03%
- viability, T/C (second compound 3.16 µM, first compound 3.16 µM): 6.96%
- viability, T/C (second compound 3.16 µM, first compound 10 µM): 5.94%
- viability, T/C (second compound 10 µM, first compound 0.0316 µM): 87.7%
- viability, T/C (second compound 10 µM, first compound 0.1 µM): 51.8%
- viability, T/C (second compound 10 µM, first compound 0.316 µM): 26.4%
- viability, T/C (second compound 10 µM, first compound 1 µM): 8.47%
- viability, T/C (second compound 10 µM, first compound 3.16 µM): 6.49%
- viability, T/C (second compound 10 µM, first compound 10 µM): 6.12%
- viability, T/C (second compound 31.6 µM, first compound 0.0316 µM): 81.3%
- viability, T/C (second compound 31.6 µM, first compound 0.1 µM): 44%
- viability, T/C (second compound 31.6 µM, first compound 0.316 µM): 23.2%
- viability, T/C (second compound 31.6 µM, first compound 1 µM): 9.91%
- viability, T/C (second compound 31.6 µM, first compound 3.16 µM): 6.7%
- viability, T/C (second compound 31.6 µM, first compound 10 µM): 5.99%
- viability, T/C (second compound 100 µM, first compound 0.0316 µM): 62.7%
- viability, T/C (second compound 100 µM, first compound 0.1 µM): 37.2%
- viability, T/C (second compound 100 µM, first compound 0.316 µM): 18.4%
- viability, T/C (second compound 100 µM, first compound 1 µM): 8.87%
- viability, T/C (second compound 100 µM, first compound 3.16 µM): 6.58%
- viability, T/C (second compound 100 µM, first compound 10 µM): 5.6%

SMILES: COc1ccc([C@@H](O)c2cc(-c3ncnc4cc(N5CCOCC5)ccc34)c(F)cc2Cl)nn1 + COc1cc2c(cc1O)CCNC21CSC2c3c(OC(C)=O)c(C)c4c(c3C(COC1=O)N1C(O)C3Cc5cc(C)c(OC)c(O)c5C(C21)N3C)OCO4
- pIC50 (second compound 30 pM): 6.07
- pIC50 (second compound 94.9 pM): 6.29
- pIC50 (second compound 0.0003 µM): 6.99
- pIC50 (second compound 0.000949 µM): > 7.50
- pIC50 (second compound 0.003 µM): > 7.50
- viability, T/C (second compound 30 pM, first compound 0.0316 µM): 124%
- viability, T/C (second compound 30 pM, first compound 0.1 µM): 112%
- viability, T/C (second compound 30 pM, first compound 0.316 µM): 90.3%
- viability, T/C (second compound 30 pM, first compound 1 µM): 43.8%
- viability, T/C (second compound 30 pM, first compound 3.16 µM): 15.9%
- viability, T/C (second compound 30 pM, first compound 10 µM): 10.5%
- viability, T/C (second compound 94.9 pM, first compound 0.0316 µM): 111%
- viability, T/C (second compound 94.9 pM, first compound 0.1 µM): 108%
- viability, T/C (second compound 94.9 pM, first compound 0.316 µM): 64.1%
- viability, T/C (second compound 94.9 pM, first compound 1 µM): 29.1%
- viability, T/C (second compound 94.9 pM, first compound 3.16 µM): 15%
- viability, T/C (second compound 94.9 pM, first compound 10 µM): 11.4%
- viability, T/C (second compound 0.0003 µM, first compound 0.0316 µM): 59.6%
- viability, T/C (second compound 0.0003 µM, first compound 0.1 µM): 51.3%
- viability, T/C (second compound 0.0003 µM, first compound 0.316 µM): 30.5%
- viability, T/C (second compound 0.0003 µM, first compound 1 µM): 14%
- viability, T/C (second compound 0.0003 µM, first compound 3.16 µM): 3.86%
- viability, T/C (second compound 0.0003 µM, first compound 10 µM): 0.36%
- viability, T/C (second compound 0.000949 µM, first compound 0.0316 µM): 3.29%
- viability, T/C (second compound 0.000949 µM, first compound 0.1 µM): 3.11%
- viability, T/C (second compound 0.000949 µM, first compound 0.316 µM): 1.76%
- viability, T/C (second compound 0.000949 µM, first compound 1 µM): 0.36%
- viability, T/C (second compound 0.000949 µM, first compound 3.16 µM): 1.07%
- viability, T/C (second compound 0.000949 µM, first compound 10 µM): 2.57%
- viability, T/C (second compound 0.003 µM, first compound 0.0316 µM): 2.08%
- viability, T/C (second compound 0.003 µM, first compound 0.1 µM): 3.06%
- viability, T/C (second compound 0.003 µM, first compound 0.316 µM): 2.71%
- viability, T/C (second compound 0.003 µM, first compound 1 µM): 4.43%
- viability, T/C (second compound 0.003 µM, first compound 3.16 µM): 5.13%
- viability, T/C (second compound 0.003 µM, first compound 10 µM): 6.09%
